From US20260191887A1, “METHODS OF TREATING INFLAMMATION” (THERAPEUTIKOS, INC., priority 2022, published 2026) come the findings set out here.

Data set [1] relates to mouse macrophage cell line RAW264.7 cells. Kind of data set: WST-1 cytotoxicity assay in RAW264.7 cells. It counts as cell-based. As to conditions: concentrations up to 5 mM, 24 h, n=8. As to the method:
Mouse RAW264.7 macrophage cell line (ATCC; Manassas, VA, USA) was maintained in DMEM culture medium containing 10% FBS and 1% antibiotic mix. For cell treatment, the test drugs at different doses were added to the culture 0.5 h prior to addition of 100 ng/mL LPS (Sigma-Aldrich Co., St Louis, MO, USA) and then cells were co-treated with LPS for 24 hours. Macrophages in the control group and the treatment groups was seeded on a 96-well plate for 24 hrs and the cell number was counted using the WST-1 kit (Fisher Scientific). After removal of the supernatant, 150 μL of the fresh medium was added into each well. Then 15 μL of the Cell Proliferation Reagent WST-1 was added and incubated with cells for 3 hrs in dark with a humidified atmosphere of 5% carbon dioxide at 37° C. Each sample was determined at 450 nm on a microplate reader. No drugs were added in the non-treatment group (NT). There were eight repeats in each group (n=8). The experiment was duplicated.
Background: Formazan colour is commonly taken as a measure of viable cells.

A further data set deals with IL-6. Kind of data set: IL-6 ELISA in LPS-activated primary mouse peritoneal macrophages. In kind it is cell-based. As to conditions: LPS 100 ng/mL; NDX1 and NDX2 0.01, 0.1, 1 mM; NAG 0.1 and 1 mM; n=8. The method, then:
(§1) • 1. Non treatment (NT) • 2. LPS 100 ng/mL • 3. LPS 100 ng/mL+NDX1 dose1* • 4. LPS 100 ng/mL+NDX1 dose2* • 5. LPS 100 ng/mL+NDX1 dose3* • 6. LPS 100 ng/mL+NDX2 dose1 • 7. LPS 100 ng/mL+NDX2 dose2 • 8. LPS 100 ng/mL+NDX2 dose3 • 9. LPS 100 ng/mL+NAG dose2 • 10. LPS 100 ng/mL+NAG dose3 (*dose 1, 2, 3 were selected as low, middle and high dose with no cytotoxicity from the cytotoxic assay)
(§2) The peritoneal macrophages were isolated from peritoneal cavity, and cultured in Dulbecco's modified Eagle's medium (DMEM, Gibco BRL, Gaithersburg, MD) supplemented with 10% fetal bovine serum (FBS) (Hyclone Laboratories, Logan, VT) and 100 IU/mL penicillin G and 100 µg/mL streptomycin, in a humidified atmosphere of 5% carbon dioxide at 37° C. Cells will grow on a 96-well plate and co-treated with 100 ng/ml LPS (Sigma-Aldrich) 0.5 hours after addition of BNAGs and NAG. Twenty-four hours later, the cell number was counted by using the WST-1 kit (Fisher Scientific). After removal of the supernatant, […] new medium was added into each cell. […] Each sample was determined at 450 nm on a microplate reader.
(§3) The amounts of IL-6 and TNFα were measured by a commercial ELISA kit (Sigma-Aldrich), following the instructions provided by the manufacturer. […] The resultant solutions were read at 450 nm on a microplate reader.
Background: ELISA stands for enzyme-linked immunosorbent assay.

In a further data set the test system is TNFα. Kind of data set: TNFα ELISA in LPS-activated primary mouse peritoneal macrophages. In kind it is cell-based. As to conditions: LPS 100 ng/mL; NDX1 and NDX2 0.01, 0.1, 1 mM; NAG 0.1 and 1 mM; n=8. As to the method: as §1, §2, §3
The next data set relates to Cox-2. As to the kind of experiment: Western blot of Cox-2 expression in LPS-activated RAW264.7 macrophages. It counts as cell-based, mouse. The note with it: LPS 100 ng/mL; NDX1 0.1 and 1 mM, NDX2 and NAG 0.5 and 5 mM. The method, then: Mouse RAW264.7 macrophage cell line (ATCC; Manassas, VA, USA) was maintained in DMEM culture medium containing 10% FBS and 1% antibiotic mix. For cell treatment, the test drugs at different doses were added to the culture 0.5 h prior to addition of 100 ng/mL LPS (Sigma-Aldrich Co., St Louis, MO, USA) and then cells were co-treated with LPS for 24 hours.
The cellular proteins were prepared from cells growing on a 6-well plate (approximately 500,000/well) using a commercial cell lysis buffer (Thermo Scientific). Then the protein concentration was determined using the Bradford protein assay kit (Bio-Rad, Hercules, CA, USA). The samples containing 100 μg proteins were run on 10% SDS-polyacrylamide gels at a […] and electro-transferred to nitrocellulose membranes (Thermo Scientific) at a constant voltage of 10 V overnight. […] Using the magic wand tool from the tool palette, the area of each band was selected, and the mean histogram were recorded and then charted. […]
(In general: A western blot detects proteins with antibodies after separation by electrophoresis.)

On to `CC(=O)N[C@H]1C(O)O[C@H](CO)[C@@H](O)[C@@H]1O` (stereo partly shown) [NAG, N-acetyl glucosamine], for which the “toxicity / cell growth (WST-1)” value in data set [1] is listed as “less toxicity than NDX1”. Moreover, the “reduction of IL-6 production (ELISA)” value in the data set with IL-6 is “could significantly reduce IL-6 and TNFa production”. Also, in the data set with TNFα, the “reduction of TNFa production (ELISA)” value was “could significantly reduce IL-6 and TNFa production”. The “rank order for inhibition of Cox-2 expression (western blot)” value with Cox-2 is listed as “NAG>NDX2>NDX1”.
